The target in this experiment is T1, human PTH1 receptor (Homo sapiens, UniProt Q03431).
T1 sequence (Q03431 27-593): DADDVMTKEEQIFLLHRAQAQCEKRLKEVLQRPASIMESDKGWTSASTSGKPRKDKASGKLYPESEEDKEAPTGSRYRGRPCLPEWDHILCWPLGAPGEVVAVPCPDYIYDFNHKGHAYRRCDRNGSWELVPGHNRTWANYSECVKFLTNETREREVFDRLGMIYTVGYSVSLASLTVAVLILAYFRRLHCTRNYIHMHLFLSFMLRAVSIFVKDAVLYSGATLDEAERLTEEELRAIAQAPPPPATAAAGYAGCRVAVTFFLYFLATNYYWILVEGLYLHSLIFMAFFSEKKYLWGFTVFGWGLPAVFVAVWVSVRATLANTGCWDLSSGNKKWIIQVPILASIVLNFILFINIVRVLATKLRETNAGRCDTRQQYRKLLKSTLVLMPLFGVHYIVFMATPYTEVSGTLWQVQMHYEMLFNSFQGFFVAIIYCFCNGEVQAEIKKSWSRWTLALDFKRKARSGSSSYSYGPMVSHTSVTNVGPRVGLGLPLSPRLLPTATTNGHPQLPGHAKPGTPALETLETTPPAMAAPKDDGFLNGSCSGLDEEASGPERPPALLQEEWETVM
The experiment is described as follows: In vitro cAMP signal activity in HKRK-B7 cells (LLC-PK1 cells overexpressing the human PTH1 receptor). The experiment is classed as cell-based. To be noted: HKRK-B7 cells; compound at 1×10^−3 M; cAMP produced as percentage of that produced by hPTH(1-34) at 100 nM.

With `O=C1NC(C2CCCCC2)=NC12CCN(S(=O)(=O)CCc1cccc3[nH]ccc13)CC2` [Compound 303, 2-Cyclohexyl-8-[2-(1H-indol-4-yl)-ethanesulfonyl]-1,3,8-triaza-spiro[4.5]dec-1-en-4-one], the “cAMP production activity (%)” value was 76%.
For the molecule `Cc1cc(NCC2CNC(=O)O2)ccc1CCS(=O)(=O)N1CCC2(CC1)N=C(C1CCCCC1)NC2=O` (centres unmarked) [Compound 281, 2-cyclohexyl-8-(2-{2-methyl-4-[(2-oxo-oxazolidin-5-ylmethyl)-amino]-phenyl}-ethanesulfonyl)-1,3,8-triaza-spiro[4.5]dec-1-en-4-one], the “cAMP production activity (%)” value came out at 92%.
For `CSCCCCCCCC1=NC2(CCN(S(=O)(=O)/C=C/c3c(C)cc(N(C)C(N)=O)cc3C)CC2)C(=O)N1` [Compound 1022, 1-(3,5-Dimethyl-4-{(E)-2-[2-(7-methylsulfanyl-heptyl)-4-oxo-1,3,8-triaza-spiro[4.5]dec-1-ene-8-sulfonyl]-vinyl}-phenyl)-1-methyl-urea], the “cAMP production activity (%)” value is given as 105%.
Next, `Cc1cc(C(=O)N2CCN(CCF)CC2)cc(C)c1/C=C/S(=O)(=O)N1CCC2(CC1)N=C(C1CCC(CCC(F)(F)F)CC1)NC2=O` (centres unmarked) [Compound 549, 8-((E)-2-{4-[4-(2-fluoro-ethyl)-piperazine-1-carbonyl]-2,6-dimethyl-phenyl}-ethenesulfonyl)-2-[4-(3,3,3-trifluoro-propyl)-cyclohexyl]-1,3,8-triaza-spiro[4.5]dec-1-en-4-one]: 86%; `Cc1cc(N2C(=O)CNC2=O)cc(C)c1CCS(=O)(=O)N1CCC2(CC1)N=C(c1ccc(F)c(C(F)(F)F)c1)NC2=O` [Compound 800, 3-(4-{2-[2-(4-fluoro-3-trifluoromethyl-phenyl)-4-oxo-1,3,8-triaza-spiro[4.5]dec-1-ene-8-sulfonyl]-ethyl}-3,5-dimethyl-phenyl)-imidazolidine-2,4-dione]: 77%; `O=C1NC(C2CCCCC2)=NC12CCN(S(=O)(=O)CCc1cccc3c1ccn3CCCCO)CC2` [Compound 651, 2-cyclohexyl-8-{2-[1-(4-hydroxy-butyl)-1H-indol-4-yl]-ethanesulfonyl}-1,3,8-triaza-spiro[4.5]dec-1-en-4-one]: 54%.
With `Cc1cc(N(C)C(N)=O)c(Cl)c(C)c1CCS(=O)(=O)N1CCC2(CC1)N=C(C1CCC(CC(F)(F)F)CC1)NC2=O` (centres unmarked) [Compound 937, 1-[2-chloro-3,5-dimethyl-4-(2-{4-oxo-2-[4-(2,2,2-trifluoro-ethyl)-cyclohexyl]-1,3,8-triaza-spiro[4.5]dec-1-ene-8-sulfonyl}-ethyl)-phenyl]-1-methyl-urea] the figure was 120%.
`Cc1cc(NS(N)(=O)=O)ccc1/C=C/S(=O)(=O)N1CCC2(CC1)N=C(c1cccc(OC(F)(F)F)c1)NC2=O` [Compound 742, N-(3-Methyl-4-{(E)-2-[4-oxo-2-(3-trifluoromethoxy-phenyl)-1,3,8-triaza-spiro[4.5]dec-1-ene-8-sulfonyl]-vinyl}-phenyl)-sulfamide]: the “cAMP production activity (%)” value worked out at 50%.
Turning to `O=C1NC(C2CCCCC2)=NC12CCN(S(=O)(=O)CCc1cccc3cnccc13)CC2` [Compound 320, 2-cyclohexyl-8-(2-isoquinolin-5-yl-ethanesulfonyl)-1,3,8-triaza-spiro[4.5]dec-1-en-4-one], the “cAMP production activity (%)” value is 33%.
With `CCCCCCCCCC1=NC2(CCN(S(=O)(=O)/C=C/c3c(C)cc(N(C)C(N)=O)cc3C)CC2)C(=O)N1` [Compound 692, 1-{3,5-Dimethyl-4-[(E)-2-(2-nonyl-4-oxo-1,3,8-triaza-spiro[4.5]dec-1-ene-8-sulfonyl)-vinyl]-phenyl}-1-methyl-urea], the “cAMP production activity (%)” value came out at 101%.
As for `Cc1cc(CN(C)C(N)=O)cc(C)c1/C=C/S(=O)(=O)N1CCC2(CC1)N=C(C1CCC(CCC(F)(F)F)CC1)NC2=O` (centres unmarked) [Compound 1300, 1-[3,5-Dimethyl-4-((E)-2-{4-oxo-2-[4-(3,3,3-trifluoro-propyl)-cyclohexyl]-1,3,8-triaza-spiro[4.5]dec-1-ene-8-sulfonyl}-vinyl)-benzyl]-1-methyl-urea], the “cAMP production activity (%)” value was 81%.

The values are drawn from patent publication US9169254B2, “Spiroimidazolone derivative” (Chugai Seiyaku Kabushiki Kaisha, priority 2009, dated 2015).
